The values below come from patent US20110190265A1, “METHODS AND COMPOSITIONS FOR TREATING BACTERIAL INFECTIONS BY INHIBITING QUORUM SENSING” (priority 2008, published 2011).

In assay [1] the test system is autoinducer production by V. cholerae N16961. Briefly: microbe, parasite or virus in culture. Particulars: Vibrio cholerae, read-out: AI Inhibition IC50, BB170 (ai1−ai2+).
In assay [2] the target is MTAN activity in V. cholerae N16961 cells (Vibrio cholerae serotype O1, UniProt Q9KPI8).
For the next assay, the target named is human MTAP (Homo sapiens, UniProt Q13126). The following applies: read-out: affinity for purified human MTAP; cited from earlier work.
Sequence of human MTAP (Q13126 whole entry): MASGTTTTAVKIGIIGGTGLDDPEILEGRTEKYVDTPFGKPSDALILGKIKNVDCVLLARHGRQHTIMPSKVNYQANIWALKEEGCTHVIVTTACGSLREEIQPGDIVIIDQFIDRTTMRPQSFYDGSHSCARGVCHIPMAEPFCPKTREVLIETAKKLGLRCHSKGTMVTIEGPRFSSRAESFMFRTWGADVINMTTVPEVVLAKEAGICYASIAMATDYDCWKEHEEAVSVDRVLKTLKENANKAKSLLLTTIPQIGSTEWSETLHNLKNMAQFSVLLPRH
The target of another assay is T1, VcMTAN (Vibrio cholerae serotype O1, UniProt Q9KPI8).
T1 construct: residues 1-230 for each monomer of VcMTAN in the asymmetric unit; The largest part of the N-terminal 6-His tag and the last C-terminal residue, 231; made in house; host or cells: E. coli BL21 Star (pBAD-DEST49)
T1 sequence (Q9KPI8 1-231): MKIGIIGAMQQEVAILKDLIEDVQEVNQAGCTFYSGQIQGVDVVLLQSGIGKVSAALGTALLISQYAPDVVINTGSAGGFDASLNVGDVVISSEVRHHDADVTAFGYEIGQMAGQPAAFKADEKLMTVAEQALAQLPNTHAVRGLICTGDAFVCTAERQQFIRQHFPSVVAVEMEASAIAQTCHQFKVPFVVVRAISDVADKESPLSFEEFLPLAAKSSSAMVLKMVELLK
In words: Inhibition of purified MTAN activity (xanthine oxidase-coupled assay). The assay is classed as biochemical. The following applies: ratio of dissociation constants of the inhibitor pair.

The next assay addresses EcMTAN (Escherichia coli, UniProt P0AF12). The following applies: purified EcMTAN; cited from earlier work.

Sequence of EcMTAN (P0AF12 whole entry): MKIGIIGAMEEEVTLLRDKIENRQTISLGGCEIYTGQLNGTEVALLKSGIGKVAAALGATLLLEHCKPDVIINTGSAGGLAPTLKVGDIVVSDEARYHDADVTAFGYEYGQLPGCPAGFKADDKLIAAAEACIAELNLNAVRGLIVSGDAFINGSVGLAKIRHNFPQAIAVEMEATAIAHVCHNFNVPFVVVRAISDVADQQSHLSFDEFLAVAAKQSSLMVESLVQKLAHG
Protocol for VcMTAN: Inhibition of purified MTAN activity. […] Reactions were monitored for 2 hours at 25° C. on a Cary 300 Bio UV-Vis spectrophotometer. Inhibition constants were obtained by fitting the data to the following expression for competitive inhibition using KaleidaGraph 3.6 (Synergy Software, Reading, Pa.):
where νs′ and νs are steady state rates in the presence, and absence of inhibitor, respectively; Km is the Michaelis constant for substrate MTA which was obtained as described above; [S] and [I] are the concentrations of MTA and inhibitor, respectively. If the concentration of inhibitor is smaller than 10-fold concentration of enzymes, the following correction was then applied:

`CCCCSCC1CN(Cc2c[nH]c3c(N)ncnc23)CC1O` (stereo not shown) [BuT-DADMe-ImmA, 5′-butylthio-(BuT-)DADMe-ImmucillinA]: the IC50 in assay [1] worked out at 1.4 nM.

Consider `CCSCC1CN(Cc2c[nH]c3c(N)ncnc23)CC1O` (stereo not shown) [EtT-DADMe-ImmA, 5′-ethylthio-(EtT-) DADMe-ImmucillinA], for which, in assay [1], the IC50 came out at 11 nM. Consider `CSCC1CN(Cc2c[nH]c3c(N)ncnc23)CC1O` (stereo not shown) [MT-DADMe-ImmA, 5′-methylthio-(MT-) DADMe-ImmucillinA], for which, in assay [2], the “increase of cellular IC50 above Ki* (diffusion barrier)” value was roughly 500 fold. In addition, the Kd on human MTAP was 0.086 nM. Besides, the IC50 in assay [1] amounted to 0.94 nM.

With `CSC[C@H]1N[C@@H](c2c[nH]c3c(N)ncnc23)[C@H](O)[C@@H]1O` [MT-ImmA, 5′-methylthio-ImmucillinA], the KImmA/KDADMe-ImmA at VcMTAN is 135.

With `Nc1ncnc2c(CN3CC(O)C(CSc4ccc(Cl)cc4)C3)c[nH]c12` (stereo not shown) [para-chloro-phenylthio-DADMe-ImmA], the Km/Ki on EcMTAN is listed as ~10^8.
